Holding throughout (assay type): cell-based
In test [1] the test system is NHRE fibroblast cell line. Nature of the test: Dose per cell at LD50, 2500 cell 3 day assay. The conditions noted are these: NHRE normal cells, 2500 cells, dose per cell limiting. The text has this: (§1) Tumour cell lines A2058, NO36 and LS174T and the normal adult dermal fibroblast line NHDF-Ad were used in 5000 cell, six day assays to compare dose per cell at LD50 values for BEC (1:1 solamargine:solasonine), solamargine, solasonine and an equimolar mixture of solamargine and solasonine. Data from the fibroblast cell line NHRE in a 2500 cell 3 day assay was also obtained.

Another test has as its system LNCaP tumour cell line. Nature of the test: Dose per cell at LD50, 7500 cell six day assay. Particulars: 7500 cells, dose per cell limiting. The text has this: (§2) Tumour cell line LNCaP was used at 7500 cells in a six day assay format while 786-O was used in a 650 cell, six day format where dose per cell is not a limiting factor determining LD50 as well as in 5000 cell, three day format where dose per cell does limit LD50.

Test [2] relates to 786-O tumour cell line. Briefly: Dose per cell at LD50, 650 cell six day format (dose per cell not limiting). The conditions noted are these: 650 cells.
From the text: as §2

For test [3], the system named is 786-O tumour cell line. Nature of the test: Dose per cell at LD50, 5000 cell three day format (dose per cell limiting). Particulars: 5000 cells.
From the text: as §2

Test [4] concerns NO36 tumour cell line. Nature of the test: Effect of solamargine:solasonine ratio on cytotoxicity, MTT cell proliferation assay. Particulars: NO36, 6 day assay, 5000 cells. The method, then: (§3) Tumour cell lines 786-O and NO36 and normal fibroblasts NHDF-Ad were used in 5000 cell assays, for three, six and six day assays, respectively, to study the effect of solamargine:solasonine ratio on cytotoxicity.
(§4) Solutions of 4 mg/mL solamargine and 4 mg/mL solasonine in 3% acetic acid were mixed to provide the various ratios. These mixtures were diluted in the culture medium appropriate to the cell line used to concentrations ranging from 0.32 to 40 ug/mL. Fifty uL aliquots were added to tissue culture wells seeded with 5000 cells in 150 uL culture medium 24 hours previously.
(§5) Cell survival was assessed using the MTT cell proliferation assay following four days growth after application of the alkaloids. The formazan absorbance of alkaloid treated wells relative to wells treated with an equivalently dilute acetic acid solution expressed as a percentage has been taken as percentage cell survival.

Test [5] deals with 786-O tumour cell line. Described as above. Particulars: 3 day assay, 5000 cells. The procedure:
as §3, §4, §5

Test [6] concerns NHDF-Ad normal fibroblasts. Described as above. Particulars: 6 day assay, 5000 cells. The method, then: as §3, §4, §5
Test [7] concerns NO36 tumour cell line. Briefly: Dose per cell at LD50, 5000 cell six day assay. The conditions noted are these: NO36, 5000 cells, dose per cell limiting.
From the text: as §1

Test [8] has as its system NHDF-Ad normal adult dermal fibroblast line. Briefly: Dose per cell at LD50, 5000 cell six day assay. The conditions noted are these: NHDF-Ad normal cells, 5000 cells, dose per cell limiting.
From the text: as §1

The next test concerns A2058 tumour cell line. Briefly: Dose per cell at LD50, 5000 cell six day assay. The conditions noted are these: A2058, 5000 cells, dose per cell limiting.
From the text: as §1

The next test concerns LS174T tumour cell line. Briefly: Dose per cell at LD50, 5000 cell six day assay. The conditions noted are these: 5000 cells, dose per cell limiting.
From the text: as §1

In the case of `C[C@@H]1CC[C@@]2(NC1)O[C@H]1C[C@H]3[C@@H]4CC=C5C[C@@H](O[C@@H]6O[C@H](CO)[C@H](O)[C@H](O[C@@H]7O[C@H](CO)[C@@H](O)[C@H](O)[C@H]7O)[C@H]6O[C@@H]6O[C@@H](C)[C@H](O)[C@@H](O)[C@H]6O)CC[C@]5(C)[C@H]4CC[C@]3(C)[C@H]1[C@@H]2C` [Solasonine, solasonine], the “Dose per cell at LD50, pg/cell of total alkaloid” value (“Dose per cell at LD50, pg/cell” for short) is 1657.7 pg/cell in [1]; 432.5 pg/cell with LNCaP tumour cell line; 5606.0 pg/cell in the test on 786-O tumour cell line [2]; more than 400 pg/cell in the test with 786-O tumour cell line [3]; 613.2 pg/cell in the test with NO36 tumour cell line [7]; 587.6 pg/cell in test [8]. For the same compound, the entries for the “Dose per cell at LD50, pg/cell” value in the test with A2058 tumour cell line and in the test with LS174T tumour cell line were 685 pg/cell and more than 400 pg/cell, respectively. For the same compound, the “Dose per cell at LD50,” value is 613 pg in the test on NO36 tumour cell line [4], 500 pg with 786-O tumour cell line [5] and 400 pg in test [6].
In the case of `C[C@@H]1CC[C@@]2(NC1)O[C@H]1C[C@H]3[C@@H]4CC=C5C[C@@H](O[C@@H]6O[C@H](CO)[C@@H](O[C@@H]7O[C@@H](C)[C@H](O)[C@@H](O)[C@H]7O)[C@H](O)[C@H]6O[C@@H]6O[C@@H](C)[C@H](O)[C@@H](O)[C@H]6O)CC[C@]5(C)[C@H]4CC[C@]3(C)[C@H]1[C@@H]2C` [Solamargine, solamargine], the “Dose per cell at LD50, pg/cell” value in test [1] is on record as 227.9 pg/cell; in the test with LNCaP tumour cell line, 121.9 pg/cell; with 786-O tumour cell line [2], 1394.0 pg/cell; with 786-O tumour cell line [3] it was 208.0 pg/cell; in the test on NO36 tumour cell line [7] it was 154.8 pg/cell; in [8] it was 209.2 pg/cell. Further, the “Dose per cell at LD50, pg/cell” value was determined as 199.0 pg/cell in the test with A2058 tumour cell line and 162.8 pg/cell with LS174T tumour cell line. The “Dose per cell at LD50,” value worked out at 209 pg with NO36 tumour cell line [4], 304 pg in the test on 786-O tumour cell line [5] and 112 pg in test [6].

For the origin of these results see US20040053857A1, “Glycoalkaloid compositions and various uses thereof” (priority 2002, published 2004).
